According to patent US20160347813A1, “GLUCAGON ANALOGUES” (Zealand Pharma A/S, priority 2011, published 2016):
Residues, ends and D or L forms follow the SMILES beside them.

target: T1, human Glucagon-R (Homo sapiens, UniProt P47871); assay: Glucagon receptor efficacy assay (cAMP generation in HEK293 cells); assay type: cell-based; details: cAMP generation in HEK293 cells expressing Glucagon receptor
T1 construct: The DNA encoding the Glucagon-R or the GLP-1-R was amplified by PCR using primers encoding terminal restriction sites for subcloning; expressed in transfected cells
From the text: (§1) The DNA encoding the Glucagon-R or the GLP-1-R was amplified by PCR using primers encoding terminal restriction sites for subcloning. The 5′-end primers additionally encoded a near Kozak consensus sequence to ensure efficient translation. The fidelity of the DNA encoding the Glucagon-R and the GLP-1-R was confirmed by DNA sequencing. The PCR products encoding the Glucagon-R or the GLP-1-R were subcloned into a mammalian expression vector containing a neomycin (G418) resistance marker. The mammalian expression vectors encoding the Glucagon-R or the GLP-1-R were transfected into HEK293 cells by a standard calcium phosphate transfection method. 48 hr after transfection cells were seeded for limited dilution cloning and selected with 1 mg/ml G418 in the culture medium. Three weeks later 12 surviving colonies of Glucagon-R and GLP-1-R expressing cells were picked, propagated and tested in the Glucagon-R and GLP-1-R efficacy assays as described below. One Glucagon-R expressing clone and one GLP-1-R expressing clone were chosen for compound profiling.
(§2) On the day of analysis, growth medium was removed and the cells washed once with 200 μl Tyrode buffer. Cells were incubated in 100 μl Tyrode buffer containing increasing concentrations of test peptides, 100 μM IBMX, and 6 mM glucose for up 15 min at 37° C. The reaction was stopped by addition of 25 μl 0.5 M HCl and incubated on ice for 60 min. The cAMP content was estimated using the FlashPlate® cAMP kit from Perkin-Elmer according to manufacturer instructions. EC50 and relative efficacies compared to reference compounds (glucagon and GLP-1) were estimated by computer aided curve fitting.

T1 sequence (P47871 26-477): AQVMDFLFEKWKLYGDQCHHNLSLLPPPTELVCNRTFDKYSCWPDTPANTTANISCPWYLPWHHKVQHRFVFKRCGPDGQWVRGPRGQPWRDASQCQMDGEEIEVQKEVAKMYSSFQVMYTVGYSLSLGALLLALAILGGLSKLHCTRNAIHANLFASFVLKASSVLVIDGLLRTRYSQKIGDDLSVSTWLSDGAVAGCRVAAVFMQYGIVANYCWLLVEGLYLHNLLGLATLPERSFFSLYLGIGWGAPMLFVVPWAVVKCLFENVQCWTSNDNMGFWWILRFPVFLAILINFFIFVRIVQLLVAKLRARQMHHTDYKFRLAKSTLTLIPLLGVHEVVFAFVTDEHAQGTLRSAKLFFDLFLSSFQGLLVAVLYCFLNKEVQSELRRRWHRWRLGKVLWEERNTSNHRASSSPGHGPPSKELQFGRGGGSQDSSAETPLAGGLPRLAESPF

EC50	SMILES
0.06 nM	CCCCCCCCCCCCCCCC(=O)N[C@@H](CCC(=O)NCCCC[C@H](NC(=O)[C@H](CCC(=O)O)NC(=O)[C@H](CC(=O)O)NC(=O)[C@H](CC(C)C)NC(=O)[C@H](Cc1ccc(O)cc1)NC(=O)[C@H](CCCNC(=N)N)NC(=O)[C@H](CO)NC(=O)[C@H](Cc1ccc(O)cc1)NC(=O)[C@H](CC(=O)O)NC(=O)[C@H](CO)NC(=O)[C@@H](NC(=O)[C@H](Cc1ccccc1)NC(=O)[C@@H](NC(=O)CNC(=O)[C@H](Cc1c[nH]cn1)NC(=O)[C@H](CO)NC(=O)[C@@H](N)Cc1c[nH]cn1)[C@@H](C)O)[C@@H](C)O)C(=O)N[C@@H](CCCNC(=N)N)C(=O)N[C@@H](C)C(=O)N[C@@H](CCCNC(=N)N)C(=O)N[C@@H](CC(=O)O)C(=O)N[C@@H](Cc1ccccc1)C(=O)N[C@H](C(=O)N[C@@H](CCC(=O)O)C(=O)N[C@@H](Cc1c[nH]c2ccccc12)C(=O)N[C@@H](CC(C)C)C(=O)N[C@@H](CC(C)C)C(=O)N[C@@H](CO)C(=O)N[C@@H](C)C(N)=O)[C@@H](C)CC)C(=O)O [Compound 10] (HELM PEPTIDE1{H.S.H.G.T.F.T.S.D.Y.S.R.Y.L.D.E.K.R.A.R.D.F.I.E.W.L.L.S.A.[am]}|PEPTIDE2{[CCCCCCCCCCCCCCCC(=O)[*:2]].[gGlu]}$PEPTIDE1,PEPTIDE2,17:R3-2:R2$$$V2.0)

target: T2, human GLP-1-R (Homo sapiens, UniProt P43220); assay: GLP-1 receptor efficacy assay (cAMP generation in HEK293 cells); assay type: cell-based; details: cAMP generation in HEK293 cells expressing GLP-1 receptor
T2 construct: The DNA encoding the Glucagon-R or the GLP-1-R was amplified by PCR using primers encoding terminal restriction sites for subcloning; expressed in transfected cells
From the text: as §1, §2

T2 sequence (P43220 24-463): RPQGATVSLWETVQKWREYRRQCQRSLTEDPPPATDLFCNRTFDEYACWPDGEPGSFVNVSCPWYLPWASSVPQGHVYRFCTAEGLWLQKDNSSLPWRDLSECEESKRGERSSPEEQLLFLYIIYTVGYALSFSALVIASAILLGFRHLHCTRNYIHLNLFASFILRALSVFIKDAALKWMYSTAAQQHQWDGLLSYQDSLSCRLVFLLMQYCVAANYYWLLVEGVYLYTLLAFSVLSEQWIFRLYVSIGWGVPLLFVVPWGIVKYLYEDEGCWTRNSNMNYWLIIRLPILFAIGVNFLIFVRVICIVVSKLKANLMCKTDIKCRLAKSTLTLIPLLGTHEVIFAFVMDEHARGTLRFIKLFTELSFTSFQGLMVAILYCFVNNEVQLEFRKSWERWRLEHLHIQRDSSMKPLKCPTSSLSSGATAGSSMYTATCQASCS

SMILES	EC50
CCCCCCCCCCCCCCCC(=O)N[C@@H](CCC(=O)NCCCC[C@H](NC(=O)[C@H](CC(=O)O)NC(=O)[C@H](CC(C)C)NC(=O)[C@H](Cc1ccc(O)cc1)NC(=O)[C@H](CCCCN)NC(=O)[C@H](CO)NC(=O)[C@H](Cc1ccc(O)cc1)NC(=O)[C@H](CC(=O)O)NC(=O)[C@H](CO)NC(=O)[C@@H](NC(=O)[C@H](Cc1ccccc1)NC(=O)[C@@H](NC(=O)CNC(=O)[C@H](CCC(N)=O)NC(=O)C(C)(C)NC(=O)[C@@H](N)Cc1c[nH]cn1)[C@@H](C)O)[C@@H](C)O)C(=O)N[C@@H](CCCNC(=N)N)C(=O)N[C@@H](CCCNC(=N)N)C(=O)N[C@@H](C)C(=O)N[C@@H](CCCCN)C(=O)N[C@@H](CC(=O)O)C(=O)N[C@@H](Cc1ccccc1)C(=O)N[C@H](C(=O)N[C@@H](CCC(=O)O)C(=O)N[C@@H](Cc1c[nH]c2ccccc12)C(=O)N[C@@H](CC(C)C)C(=O)N[C@@H](CC(C)C)C(=O)N[C@@H](CO)C(=O)N[C@@H](C)C(N)=O)[C@@H](C)CC)C(=O)O [Compound 1] (HELM PEPTIDE1{H.[Aib].Q.G.T.F.T.S.D.Y.S.K.Y.L.D.K.R.R.A.K.D.F.I.E.W.L.L.S.A.[am]}|PEPTIDE2{[CCCCCCCCCCCCCCCC(=O)[*:2]].[gGlu]}$PEPTIDE1,PEPTIDE2,16:R3-2:R2$$$V2.0)	0.12 nM
CCCCCCCCCCCCCCCC(=O)N[C@@H](CCC(=O)NCCCC[C@H](NC(=O)[C@H](CCC(=O)O)NC(=O)[C@H](CC(=O)O)NC(=O)[C@H](CC(C)C)NC(=O)[C@H](Cc1ccc(O)cc1)NC(=O)[C@H](CCCNC(=N)N)NC(=O)[C@H](CO)NC(=O)[C@H](Cc1ccc(O)cc1)NC(=O)[C@H](CC(=O)O)NC(=O)[C@H](CO)NC(=O)[C@@H](NC(=O)[C@H](Cc1ccccc1)NC(=O)[C@@H](NC(=O)CNC(=O)[C@@H]1CCCN1C(=O)[C@@H](CO)NC(=O)[C@@H](N)Cc1c[nH]cn1)[C@@H](C)O)[C@@H](C)O)C(=O)N[C@@H](CCCNC(=N)N)C(=O)N[C@@H](C)C(=O)N[C@@H](CCCNC(=N)N)C(=O)N[C@@H](CC(=O)O)C(=O)N[C@@H](Cc1ccccc1)C(=O)N[C@H](C(=O)N[C@@H](CCC(=O)O)C(=O)N[C@@H](Cc1c[nH]c2ccccc12)C(=O)N[C@@H](CC(C)C)C(=O)N[C@@H](CC(C)C)C(=O)N[C@@H](CO)C(=O)N[C@@H](C)C(N)=O)[C@@H](C)CC)C(=O)O [Compound 14] (HELM PEPTIDE1{H.[dS].P.G.T.F.T.S.D.Y.S.R.Y.L.D.E.K.R.A.R.D.F.I.E.W.L.L.S.A.[am]}|PEPTIDE2{[CCCCCCCCCCCCCCCC(=O)[*:2]].[gGlu]}$PEPTIDE1,PEPTIDE2,17:R3-2:R2$$$V2.0)	0.12 nM
CCCCCCCCCCCCCCCC(=O)N[C@@H](CCC(=O)NCCCC[C@H](NC(=O)[C@H](CCC(=O)O)NC(=O)[C@H](CC(=O)O)NC(=O)[C@H](CC(C)C)NC(=O)[C@H](Cc1ccc(O)cc1)NC(=O)[C@H](CCCNC(=N)N)NC(=O)[C@H](CO)NC(=O)[C@H](Cc1ccc(O)cc1)NC(=O)[C@H](CC(=O)O)NC(=O)[C@H](CO)NC(=O)[C@@H](NC(=O)[C@H](Cc1ccccc1)NC(=O)[C@@H](NC(=O)CNC(=O)[C@@H]1CCCN1C(=O)C(C)(C)NC(=O)[C@@H](N)Cc1c[nH]cn1)[C@@H](C)O)[C@@H](C)O)C(=O)N[C@@H](CCCNC(=N)N)C(=O)N[C@@H](C)C(=O)N[C@@H](CCCNC(=N)N)C(=O)N[C@@H](CC(=O)O)C(=O)N[C@@H](Cc1ccccc1)C(=O)N[C@H](C(=O)N[C@@H](CCC(=O)O)C(=O)N[C@@H](Cc1c[nH]c2ccccc12)C(=O)N[C@@H](CC(C)C)C(=O)N[C@@H](CC(C)C)C(=O)N[C@@H](CO)C(=O)N[C@@H](C)C(N)=O)[C@@H](C)CC)C(=O)O [Compound 15] (HELM PEPTIDE1{H.[Aib].P.G.T.F.T.S.D.Y.S.R.Y.L.D.E.K.R.A.R.D.F.I.E.W.L.L.S.A.[am]}|PEPTIDE2{[CCCCCCCCCCCCCCCC(=O)[*:2]].[gGlu]}$PEPTIDE1,PEPTIDE2,17:R3-2:R2$$$V2.0)	0.06 nM

More lines, now with the values ahead:

EC50	SMILES
0.06 nM	CCCCCCCCCCCCCCCC(=O)N[C@@H](CCC(=O)NCCCC[C@H](NC(=O)[C@H](CCC(=O)O)NC(=O)[C@H](CC(=O)O)NC(=O)[C@H](CC(C)C)NC(=O)[C@H](Cc1ccc(O)cc1)NC(=O)[C@H](CCCNC(=N)N)NC(=O)[C@H](CO)NC(=O)[C@H](Cc1ccc(O)cc1)NC(=O)[C@H](CC(=O)O)NC(=O)[C@H](CO)NC(=O)[C@@H](NC(=O)[C@H](Cc1ccccc1)NC(=O)[C@@H](NC(=O)CNC(=O)[C@H](Cc1c[nH]cn1)NC(=O)C(C)(C)NC(=O)[C@@H](N)Cc1c[nH]cn1)[C@@H](C)O)[C@@H](C)O)C(=O)N[C@@H](CCCNC(=N)N)C(=O)N[C@@H](C)C(=O)N[C@@H](CCCNC(=N)N)C(=O)N[C@@H](CC(=O)O)C(=O)N[C@@H](Cc1ccccc1)C(=O)N[C@H](C(=O)N[C@@H](CCC(=O)O)C(=O)N[C@@H](Cc1c[nH]c2ccccc12)C(=O)N[C@@H](CC(C)C)C(=O)N[C@@H](CC(C)C)C(=O)N[C@@H](CO)C(=O)N[C@@H](C)C(N)=O)[C@@H](C)CC)C(=O)O [Compound 12] (HELM PEPTIDE1{H.[Aib].H.G.T.F.T.S.D.Y.S.R.Y.L.D.E.K.R.A.R.D.F.I.E.W.L.L.S.A.[am]}|PEPTIDE2{[CCCCCCCCCCCCCCCC(=O)[*:2]].[gGlu]}$PEPTIDE1,PEPTIDE2,17:R3-2:R2$$$V2.0)
0.06 nM	CCCCCCCCCCCCCCCC(=O)N[C@@H](CCC(=O)NCCCC[C@H](NC(=O)[C@H](CCC(=O)O)NC(=O)[C@H](CC(=O)O)NC(=O)[C@H](CC(C)C)NC(=O)[C@H](Cc1ccc(O)cc1)NC(=O)[C@H](CCCNC(=N)N)NC(=O)[C@H](CO)NC(=O)[C@H](Cc1ccc(O)cc1)NC(=O)[C@H](CC(=O)O)NC(=O)[C@H](CO)NC(=O)[C@@H](NC(=O)[C@H](Cc1ccccc1)NC(=O)[C@@H](NC(=O)CNC(=O)[C@H](CCC(N)=O)NC(=O)C(C)(C)NC(=O)[C@@H](N)Cc1c[nH]cn1)[C@@H](C)O)[C@@H](C)O)C(=O)N[C@@H](CCCNC(=N)N)C(=O)N[C@@H](C)C(=O)N[C@@H](CCCCN)C(=O)N[C@@H](CC(=O)O)C(=O)N[C@@H](Cc1ccccc1)C(=O)N[C@H](C(=O)N[C@@H](CCC(=O)O)C(=O)N[C@@H](Cc1c[nH]c2ccccc12)C(=O)N[C@@H](CC(C)C)C(=O)N[C@@H](CC(C)C)C(=O)N[C@@H](CO)C(=O)N[C@@H](C)C(N)=O)[C@@H](C)CC)C(=O)O [Compound 16] (HELM PEPTIDE1{H.[Aib].Q.G.T.F.T.S.D.Y.S.R.Y.L.D.E.K.R.A.K.D.F.I.E.W.L.L.S.A.[am]}|PEPTIDE2{[CCCCCCCCCCCCCCCC(=O)[*:2]].[gGlu]}$PEPTIDE1,PEPTIDE2,17:R3-2:R2$$$V2.0)
0.07 nM	CCCCCCCCCCCCCCCC(=O)N[C@@H](CCC(=O)NCCCC[C@H](NC(=O)[C@H](CCC(=O)O)NC(=O)[C@H](CC(=O)O)NC(=O)[C@H](CC(C)C)NC(=O)[C@H](Cc1ccc(O)cc1)NC(=O)[C@H](CCCCN)NC(=O)[C@H](CO)NC(=O)[C@H](Cc1ccc(O)cc1)NC(=O)[C@H](CC(=O)O)NC(=O)[C@H](CO)NC(=O)[C@@H](NC(=O)[C@H](Cc1ccccc1)NC(=O)[C@@H](NC(=O)CNC(=O)[C@H](CCC(N)=O)NC(=O)[C@@H](CO)NC(=O)[C@@H](N)Cc1c[nH]cn1)[C@@H](C)O)[C@@H](C)O)C(=O)N[C@@H](CCCNC(=N)N)C(=O)N[C@@H](C)C(=O)N[C@@H](CCCCN)C(=O)N[C@@H](CC(=O)O)C(=O)N[C@@H](Cc1ccccc1)C(=O)N[C@H](C(=O)N[C@@H](CCC(=O)O)C(=O)N[C@@H](Cc1c[nH]c2ccccc12)C(=O)N[C@@H](CC(C)C)C(=O)N[C@@H](CC(C)C)C(=O)N[C@@H](CO)C(=O)N[C@@H](C)C(N)=O)[C@@H](C)CC)C(=O)O [Compound 17] (HELM PEPTIDE1{H.[dS].Q.G.T.F.T.S.D.Y.S.K.Y.L.D.E.K.R.A.K.D.F.I.E.W.L.L.S.A.[am]}|PEPTIDE2{[CCCCCCCCCCCCCCCC(=O)[*:2]].[gGlu]}$PEPTIDE1,PEPTIDE2,17:R3-2:R2$$$V2.0)
